Patent publication US20250163022A1, “PARP1 INHIBITORS” (Synnovation Therapeutics, Inc., priority 2021, published 2025)

These compounds were tested against T1, PARP1 (Homo sapiens, UniProt P09874) (assay: In-Cell Western measurement of PARylation in PARP1 WT and knockout cells). Details: HeLa cells (wide-type with PARP1 gene); hydrogen peroxide-induced PARylation; compounds 30 min, then 10 mM hydrogen peroxide 15 min; read-out: HeLa_WT_IC50.
T1 construct: HeLa cells (wide-type with PARP1 gene) were purchased from ATCC; host or cells: HeLa (wild type)
T1 sequence (P09874 whole entry): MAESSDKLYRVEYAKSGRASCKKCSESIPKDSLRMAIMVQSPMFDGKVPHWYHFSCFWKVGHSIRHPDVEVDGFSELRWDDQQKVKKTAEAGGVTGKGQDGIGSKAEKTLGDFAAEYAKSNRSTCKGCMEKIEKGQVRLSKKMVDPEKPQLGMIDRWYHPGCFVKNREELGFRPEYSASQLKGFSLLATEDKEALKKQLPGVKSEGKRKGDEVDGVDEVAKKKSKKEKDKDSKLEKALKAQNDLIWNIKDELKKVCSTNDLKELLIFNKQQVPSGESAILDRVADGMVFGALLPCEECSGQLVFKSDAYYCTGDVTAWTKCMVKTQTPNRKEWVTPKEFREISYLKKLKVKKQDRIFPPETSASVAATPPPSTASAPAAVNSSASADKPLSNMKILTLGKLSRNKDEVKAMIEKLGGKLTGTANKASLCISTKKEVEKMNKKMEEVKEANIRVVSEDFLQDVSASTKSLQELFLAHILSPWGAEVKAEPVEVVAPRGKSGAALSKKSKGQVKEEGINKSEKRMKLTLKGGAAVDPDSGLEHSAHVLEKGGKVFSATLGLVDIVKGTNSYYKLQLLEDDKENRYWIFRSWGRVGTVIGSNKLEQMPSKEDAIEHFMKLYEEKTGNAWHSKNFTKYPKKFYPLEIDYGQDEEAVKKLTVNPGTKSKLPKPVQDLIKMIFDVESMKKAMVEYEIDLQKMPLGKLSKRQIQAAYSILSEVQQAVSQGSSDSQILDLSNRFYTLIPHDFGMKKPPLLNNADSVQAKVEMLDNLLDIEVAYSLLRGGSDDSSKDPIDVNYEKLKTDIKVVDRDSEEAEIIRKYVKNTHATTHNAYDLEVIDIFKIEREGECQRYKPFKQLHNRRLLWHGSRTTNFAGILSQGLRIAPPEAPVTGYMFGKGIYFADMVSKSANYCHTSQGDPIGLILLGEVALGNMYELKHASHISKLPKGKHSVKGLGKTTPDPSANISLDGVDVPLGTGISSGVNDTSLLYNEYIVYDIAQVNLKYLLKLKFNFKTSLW
Type: cell-based
Outline: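 Wild-type and PARP1-knockout HEK-293T and HAP1 cells, plus HeLa, pretreated with compound 30 min, then stimulated with 10 mM hydrogen peroxide for 15 min. Methanol-fixed cells immunostained for PARylation and imaged by In-Cell Western with infrared secondary antibody; IC50 fitted from signal.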

Row | SMILES | IC50 [µM]
1 | CNC(=O)c1ccc(N2CCN(Cc3ccc4c(c3)[nH]c(=O)c3ccn(C)c34)CC2)cn1 [Compound I-8, N-methyl-5-(4-((1-methyl-4-oxo-4,5-dihydro-1H-pyrrolo[3,2-c]quinolin-7-yl)methyl)piperazin-1-yl)picolinamide] | ≤ 0.01
2 | CNC(=O)c1ccc(N2CCN(Cc3cnc4c5c(c(=O)[nH]c4c3)CCC5)CC2)c(C)n1 [Compound I-20, N,6-dimethyl-5-(4-((6-oxo-6,7,8,9-tetrahydro-5H-cyclopenta[c][1,5]naphthyridin-3-yl)methyl)piperazin-1-yl)picolinamide] | ≤ 0.01
3 | CCN1Cc2ncc(CN3CCN(c4ccc(C(=O)NC)nc4)CC3)cc2NC1=O [Compound I-11, 5-(4-((3-Ethyl-2-oxo-1,2,3,4-tetrahydropyrido[3,2-d]pyrimidin-7-yl)methyl)piperazin-1-yl)-N-methylpicolinamide] | 0.01 to 0.1
4 | CCN1C(=O)Nc2c(F)c(CN3CCN(c4ccc(C(=O)NC)nc4C)CC3)cc3nc(C)nc1c23 [Compound I-52, 5-(4-((3-Ethyl-9-fluoro-5-methyl-2-oxo-2,3-dihydro-1H-pyrimido[4,5,6-de]quinazolin-8-yl)methyl)piperazin-1-yl)-N,6-dimethylpicolinamide] | ≤ 0.01
5 | CNC(=O)c1ccc(N2CCN(Cc3ccc4c(c3)NC(=O)C3CC43)CC2)cn1 (stereo not shown) [Compound I-3, N-Methyl-5-(4-((2-oxo-1a,2,3,7b-tetrahydro-1H-cyclopropa[c]quinolin-5-yl)methyl)piperazin-1-yl)picolinamide] | 0.1 to 0.5

Further lines, results first:

Row | IC50 [µM] | SMILES
6 | ≤ 0.01 | CCc1c2c3c(cc(CN4CCN(c5ccc(C(=O)NC)nc5)CC4)cc3[nH]c1=O)OCC2 [Compound I-14, 5-(4-((4-Ethyl-5-oxo-2,3,5,6-tetrahydropyrano[4,3,2-de]quinolin-8-yl)methyl)piperazin-1-yl)-N-methylpicolinamide]
7 | ≤ 0.01 | CNC(=O)c1ccc(N2CCN(Cc3ncc4c5c(c(=O)[nH]c4c3F)CCC5)CC2)cn1 [Compound I-26, 5-(4-((4-Fluoro-6-oxo-6,7,8,9-tetrahydro-5H-cyclopenta[c][1,6]naphthyridin-3-yl)methyl)piperazin-1-yl)-N-methylpicolinamide]
8 | ≤ 0.01 | [2H]C([2H])([2H])NC(=O)c1ccc(N2CCN(Cc3ccc4c(=O)n(CC)c(=O)[nH]c4c3)CC2)c(C([2H])([2H])[2H])n1 [Compound I-44, 5-(4-((3-ethyl-2,4-dioxo-1,2,3,4-tetrahydroquinazolin-7-yl)methyl)piperazin-1-yl)-N,6-bis(methyl-d3)picolinamide]
9 | ≤ 0.01 | CCNC(=O)c1ccc(N2CCN(Cc3cc(Cl)c4c(=O)n(C)c(=O)[nH]c4c3)CC2)c(C)n1 [Compound I-43, 5-(4-((5-Chloro-3-methyl-2,4-dioxo-1,2,3,4-tetrahydroquinazolin-7-yl)methyl)piperazin-1-yl)-N-ethyl-6-methylpicolinamide]
10 | ≤ 0.01 | CNC(=O)c1ccc(N2CCN(Cc3cc4[nH]c(=O)c5c(c4cn3)CCC5)CC2)c(C)n1 [Compound I-30, N,6-dimethyl-5-(4-((6-oxo-6,7,8,9-tetrahydro-5H-cyclopenta[c][1,6]naphthyridin-3-yl)methyl)piperazin-1-yl)picolinamide]
